Source: patent US20250332300A1 (priority 2024, published 2025)
Like-named read-outs stand apart in the source and are kept apart here. Starred links: 1 amine or outer side, 2 acyl side, 3 side chain; linkers in the order of their positions; H or OH if unused. Positions of bridges follow the written chain, without caps; N, C: chain ends. Non-standard residues stand in square brackets, D forms with d. Residues, ends and D or L forms follow the SMILES beside them. Trp(5-OH) = N[C@@H](Cc1c[nH]c2ccc(O)cc12)C(=O)O; NMePhe(4-F) = CN[C@@H](Cc1ccc(F)cc1)C(=O)O; X2 = O=C([C@H](Cc1ccc(O)nc1)N[*:1])[*:2]; NMehPhe = CN[C@@H](CCc1ccccc1)C(=O)O; Glutaryl = O=C(CCCC(=O)[*:2])[*:1]; Aad = N[C@@H](CCCC(=O)O)C(=O)O; Gly(cPr) = N[C@H](C(=O)O)C1CC1; NMeK = CN[C@@H](CCCCN)C(=O)O; NMeDap = CN[C@@H](CN)C(=O)O; NMeS = CN[C@@H](CO)C(=O)O

Key:
Type in all cases: binding
[1] = target: T1, human HER2 (23-652) (Homo sapiens, UniProt P04626); experiment: Surface plasmon resonance (SPR) for assessment of peptide affinity, human HER2; set-up: towards human HER2 (23-652) and mouse HER2 (23-653); made in house; details: SPR, human HER2 extracellular domain, 25° C., 1:1 binding model; read-out: huHER2-SPR-ONC KD
Outline: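 Binding kinetics fitted from sensorgrams with 280 s peptide association then 3000 s dissociation (30 uL/min), using HER2 (23-652) either directly immobilized (SA/CM5) or anti-Fc-captured; 3 M magnesium chloride used for regeneration.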

[2] = target: T2, mouse HER2 (23-653) (Mus musculus, UniProt P70424); experiment: Surface plasmon resonance (SPR) for assessment of peptide affinity, mouse HER2; set-up: mouse HER2 (23-653) using a Cy5 labeled peptide as a probe; made in house; details: SPR, mouse HER2 extracellular domain, 25° C., 1:1 binding model; read-out: moHER2-SPR-ONC KD
Description: Each protein was immobilized either onto a SA sensorchip (Cytiva, BR-1005-31) or CM5 sensorchip (Cytiva, BR-1005-30) to a density of 800-2000 RU.

[3] = target: T1, human HER2 (23-652); experiment: TR-FRET competition assay for peptide potency, human HER2; set-up: towards human HER2 (23-652) and mouse HER2 (23-653); made in house; host or cells: mammalian cells
[4] = target: T2, mouse HER2 (23-653); experiment: TR-FRET competition assay for peptide potency, mouse HER2; set-up: mouse HER2 (23-653) using a Cy5 labeled peptide as a probe; made in house; host or cells: mammalian cells; details: TR-FRET competition with Cy5 labeled peptide probe, 0.1 nM mouse HER2, 24 h incubation; read-out: moHER2 TR-FRET IC50
[5] = TR-FRET competition with Cy5 labeled peptide probe, 0.1 nM human HER2, 24 h incubation, read-out: huHER2 TR-FRET IC50

SMILES | Kd [1] [nM] | Kd [2] [nM] | IC50 [3, 5] [nM] | IC50 ([3]; read-out: huHER2 TR-FRET IC50) [nM] | IC50 [4] [nM] | IC50 ([3]; value in parentheses (**): recalculated after further repetition, read-out: huHER2 TR-FRET IC50, recalculated value achieved after further repetition) [nM]
CC(=O)NCCCC[C@H]1C(=O)N[C@@H](Cc2c[nH]c3ccc(O)cc23)C(=O)N[C@@H](Cc2c[nH]c3ccccc23)C(=O)N[C@@H](C2CC2)C(=O)N(C)[C@H](C(=O)N(C)[C@@H](Cc2ccc(F)cc2)C(=O)N[C@@H](CCCCNC(=O)CCC(C(=O)O)N2CCN(CC(=O)O)CCN(CC(=O)O)CC2)C(N)=O)CNC(=O)CCC[C@H](NC(C)=O)C(=O)N[C@@H](Cc2ccc(O)cc2)C(=O)N[C@@H](CO)C(=O)N(C)[C@@H](CCc2ccccc2)C(=O)N1C (single isomer, unassigned) [Example C35] | < 0.1 | < 0.1 | < 0.1 | – | – | –
CC(=O)N[C@H]1CCC(=O)NC[C@@H](C(=O)N(C)[C@@H](Cc2ccc(F)cc2)C(N)=O)N(C)C(=O)[C@H](C2CC2)NC(=O)[C@H](Cc2c[nH]c3ccccc23)NC(=O)[C@H](Cc2c[nH]c3ccc(O)cc23)NC(=O)[C@H](CO)N(C)C(=O)[C@H](CCc2ccccc2)N(C)C(=O)[C@H](CO)NC(=O)[C@H](Cc2ccc(O)nc2)NC1=O [Example A1, (3S,6S,9S,12S,15S,18S,21S,24S,27S)-9-((1H-indol-3-yl)methyl)-27-acetamido-N—((S)-1-amino-3-(4-fluorophenyl)-1-oxopropan-2-yl)-6-cyclopropyl-12-((5-hydroxy-1H-indol-3-yl)methyl)-15,21-bis(hydroxymethyl)-24-((6-hydroxypyridin-3-yl)methyl)-N,4,16,19-tetramethyl-5,8,11,14,17,20,23,26,30-nonaoxo-18-phenethyl-1,4,7,10,13,16,19,22,25-nonaazacyclotriacontane-3-carboxamide] (Ac-E[X2]S[NMehPhe][NMeS][Trp(5-OH)]W[Gly(cPr)][NMeDap][NMePhe(4-F)]-NH2; lactam 1-9) | 97 | 98 | – | 111 | 224 | –
CC(=O)NCCCC[C@H]1C(=O)N[C@@H](Cc2c[nH]c3ccc(O)cc23)C(=O)N[C@@H](Cc2c[nH]c3ccccc23)C(=O)N[C@@H](C2CC2)C(=O)N(C)[C@H](C(=O)N(C)[C@@H](Cc2ccc(F)cc2)C(=O)N2CCC[C@H]2C(N)=O)CNC(=O)CCC[C@H](NC(C)=O)C(=O)N[C@@H](Cc2ccc(O)cc2)C(=O)N[C@@H](CO)C(=O)N(C)[C@@H](CCc2ccccc2)C(=O)N1C [Example A2, (3S,6S,9S,12S,15S,18S,21S,24S,27S)-9-((1H-indol-3-yl)methyl)-27-acetamido-15-(4-acetamidobutyl)-N-((S)-1-((S)-2-carbamoylpyrrolidin-1-yl)-3-(4-fluorophenyl)-1-oxopropan-2-yl)-6-cyclopropyl-12-((5-hydroxy-1H-indol-3-yl)methyl)-24-(4-hydroxybenzyl)-21-(hydroxymethyl)-N,4,16,19-tetramethyl-5,8,11,14,17,20,23,26,31-nonaoxo-18-phenethyl-1,4,7,10,13,16,19,22,25-nonaazacyclohentriacontane-3-carboxamide] | 0.4 | 0.2 | – | 0.3 | 0.3 | –
CC(=O)NCCCC[C@H]1C(=O)N[C@@H](Cc2c[nH]c3ccc(O)cc23)C(=O)N[C@@H](Cc2c[nH]c3ccccc23)C(=O)N[C@@H](C2CC2)C(=O)N(C)[C@H](C(=O)N(C)[C@@H](Cc2ccc(F)cc2)C(N)=O)CNC(=O)CCC[C@H](NC(C)=O)C(=O)N[C@@H](Cc2ccc(O)cc2)C(=O)N[C@@H](CO)C(=O)N(C)[C@@H](CCc2ccccc2)C(=O)N1C [Example A5, (3S,6S,9S,12S,15S,18S,21S,24S,27S)-9-((1H-indol-3-yl)methyl)-27-acetamido-15-(4-acetamidobutyl)-N-((S)-1-amino-3-(4-fluorophenyl)-1-oxopropan-2-yl)-6-cyclopropyl-12-((5-hydroxy-1H-indol-3-yl)methyl)-24-(4-hydroxybenzyl)-21-(hydroxymethyl)-N,4,16,19-tetramethyl-5,8,11,14,17,20,23,26,31-nonaoxo-18-phenethyl-1,4,7,10,13,16,19,22,25-nonaazacyclohentriacontane-3-carboxamide] (Ac-[Aad]YS[NMehPhe][NMeK](Ac)[Trp(5-OH)]W[Gly(cPr)][NMeDap][NMePhe(4-F)]-NH2; lactam 1-9) | 0.5 | 0.6 | – | 0.4 | 0.8 | –
CC(=O)NCCCC[C@H]1C(=O)N[C@@H](Cc2c[nH]c3ccc(O)cc23)C(=O)N[C@@H](Cc2c[nH]c3ccccc23)C(=O)N[C@@H](C2CC2)C(=O)N(C)[C@H](C(=O)N(C)[C@@H](Cc2ccc(F)cc2)C(N)=O)CNC(=O)CCCC(=O)N[C@@H](Cc2ccc(O)cc2)C(=O)N[C@@H](CO)C(=O)N(C)[C@@H](CCc2ccccc2)C(=O)N1C [Example A7, (3S,6S,9S,12S,15S,18S,21S,24S)-9-((1H-indol-3-yl)methyl)-15-(4-acetamidobutyl)-N-((S)-1-amino-3-(4-fluorophenyl)-1-oxopropan-2-yl)-6-cyclopropyl-12-((5-hydroxy-1H-indol-3-yl)methyl)-24-(4-hydroxybenzyl)-21-(hydroxymethyl)-N,4,16,19-tetramethyl-5,8,11,14,17,20,23,26,30-nonaoxo-18-phenethyl-1,4,7,10,13,16,19,22,25-nonaazacyclotriacontane-3-carboxamide] (YS[NMehPhe][NMeK](Ac)[Trp(5-OH)]W[Gly(cPr)][NMeDap][NMePhe(4-F)]-NH2; linker N-8 via Glutaryl) | 18 | 23 | – | 18 | 40 | –
CC(=O)N[C@H]1CCC(=O)NC[C@@H](C(=O)N(C)[C@@H](Cc2ccc(F)cc2)C(N)=O)N(C)C(=O)[C@H](C2CC2)NC(=O)[C@H](Cc2c[nH]c3ccccc23)NC(=O)[C@H](Cc2c[nH]c3ccc(O)cc23)NC(=O)[C@H](CO)N(C)C(=O)[C@H](CCc2ccccc2)N(C)C(=O)[C@H](CO)NC(=O)[C@H](Cc2ccc(O)cc2)NC1=O [Example A25, (3S,6S,9S,12S,15S,18S,21S,24S,27S)-9-((1H-indol-3-yl)methyl)-27-acetamido-N—((S)-1-amino-3-(4-fluorophenyl)-1-oxopropan-2-yl)-6-cyclopropyl-12-((5-hydroxy-1H-indol-3-yl)methyl)-24-(4-hydroxybenzyl)-15,21-bis(hydroxymethyl)-N,4,16,19-tetramethyl-5,8,11,14,17,20,23,26,30-nonaoxo-18-phenethyl-1,4,7,10,13,16,19,22,25-nonaazacyclotriacontane-3-carboxamide] | – | 93 | – | 82 | 162 | –
CC(=O)NCCCC[C@H]1C(=O)N[C@@H](Cc2c[nH]c3ccc(O)cc23)C(=O)N[C@@H](Cc2c[nH]c3ccccc23)C(=O)N[C@@H]([C@H](C)O)C(=O)N(C)[C@H](C(=O)N(C)[C@@H](Cc2ccc(F)cc2)C(=O)N[C@@H](CCCCNC(=O)N2CCN(CC(=O)O)CC2)C(=O)N[C@@H](CCCCNC(=O)CN2CCN(CC(=O)O)CCN(CC(=O)O)CCN(CC(=O)O)CC2)C(N)=O)CNC(=O)CC[C@H](NC(C)=O)C(=O)N[C@@H](Cc2ccc(O)cc2)C(=O)N[C@@H](CO)C(=O)N(C)[C@@H](CCc2ccccc2)C(=O)N1C [Example C24] | – | 9.3 | 13 | – | 13 | 11
COCCOCCOCCOCCOCCOCCOCCOCCOCCOCCOCCOCCC(=O)N[C@H]1CCCC(=O)NC[C@@H](C(=O)N(C)[C@@H](Cc2ccc(F)cc2)C(=O)N[C@@H](CCCCNC(=O)CN2CCN(CC(=O)O)CCN(CC(=O)O)CCN(CC(=O)O)CC2)C(N)=O)N(C)C(=O)[C@H](C2CC2)NC(=O)[C@H](Cc2c[nH]c3ccccc23)NC(=O)[C@H](Cc2c[nH]c3ccc(O)cc23)NC(=O)[C@H](CCCCNC(C)=O)N(C)C(=O)[C@H](CCc2ccccc2)N(C)C(=O)[C@H](CO)NC(=O)[C@H](Cc2ccc(O)cc2)NC1=O [Example C37] | – | 0.3 | 0.1 | – | 0.4 | –
